According to patent US6080758A, “Benzenesulfonamide derivatives as bradykinin antagonists” (Fournier Industrie et Sante, priority 1995, dated 2000):

Biological target: T1, bradykinin B2 receptor (Cavia porcellus, UniProt O70526)
T1 construct: Ileum segments are isolated from male guinea-pigs; tissue Iffa Credo, l'Arbresle, France (supplier of the animals); host or cells: ileum membranes of male Dunkin-Hartley guinea-pigs
T1 sequence (O70526 1-372): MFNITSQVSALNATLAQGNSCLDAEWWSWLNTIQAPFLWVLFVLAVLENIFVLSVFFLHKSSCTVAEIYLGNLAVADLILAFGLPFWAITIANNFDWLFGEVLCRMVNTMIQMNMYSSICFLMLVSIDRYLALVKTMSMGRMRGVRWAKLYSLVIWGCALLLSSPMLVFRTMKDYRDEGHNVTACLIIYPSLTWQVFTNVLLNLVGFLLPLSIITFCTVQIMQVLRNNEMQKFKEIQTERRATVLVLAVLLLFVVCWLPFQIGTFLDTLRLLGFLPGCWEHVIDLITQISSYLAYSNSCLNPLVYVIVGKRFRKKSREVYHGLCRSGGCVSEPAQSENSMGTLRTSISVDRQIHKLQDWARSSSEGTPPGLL
Assay: [3H]-bradykinin binding to guinea-pig ileum membranes
Conditions: test compound 10^-6 M, [3H]-bradykinin 120 pM, 90 min at 20° C., read-out: Activity (%): percentage inhibition of the binding of [3H]-bradykinin
Method: We used the following pharmacological test: Ileum segments are isolated from male guinea-pigs of the Dunkin-Hartley strain (Iffa Credo, l'Arbresle, France) and ground in the following TES buffer: TES 25 mM, 1,10-phenanthroline 1 mM (pH 6.8), bacitracin 140 μg/ml, BSA 1 g/l. The membranes are then isolated by centrifugation (18,000 rpm; 20 min; 4° C.). The binding studies are carried out in the TES buffer using [^3 H]-bradykinin (120 pM) and 50 μg of membrane protein per test (final volume 500 μl) with an equilibrium time of 90 min at 20° C. The percentage inhibition of the binding of [^3 H]-bradykinin is then determined in the presence of one of the test compounds according to the invention at a concentration of 10^-6 M.
The results obtained (indicated as "activity") from these tests are collated in Table I below with reference to the Examples given in the description.

SMILES | inhibition at 1 µM
COC(=O)C1CCCN1S(=O)(=O)c1ccc(Cl)c(COc2cccc3ccc(C)nc23)c1Cl (racemic) [Example 1, N-[[3-[(2-Methylquinolin-8-yl)oxymethyl]-2,4-dichlorophenyl]sulfonyl]-D,L-proline Methyl Ester] | 97.8%
Cc1ccc2cccc(OCc3c(Cl)ccc(S(=O)(=O)N4CCCC4C(=O)OCCCN(C)C)c3Cl)c2n1 (racemic) [Example 11, N-[[3-[(2-Methylquinolin-8-yl)oxymethyl]-2,4-dichlorophenyl]sulfonyl]-D,L-proline 3-(dimethylamino)propyl Ester] | 76.9%
COC(=O)[C@@H]1CCCN1S(=O)(=O)c1ccc(Cl)c(COc2cccc3ccc(C)nc23)c1Cl [Example 2, N-[[3-[(2-Methylquinolin-8-yl)oxymethyl]-2,4-dichlorophenyl]sulfonyl]-L-proline Methyl Ester] | 98.6%
COCCNC(=O)C1CCCN1S(=O)(=O)c1ccc(Cl)c(COc2cccc3ccc(C)nc23)c1Cl (stereo not shown) [Example 4, 1-[[3-[(2-Methylquinolin-8-yl)oxymethyl]-2,4-dichlorophenyl]sulfonyl]-N-[2-methoxyethyl]-2-pyrrolidinecarboxamide] | 92.6%
Cc1ccc2cccc(OCc3c(Cl)ccc(S(=O)(=O)N4CCCC4C(=O)NCCO)c3Cl)c2n1 (stereo not shown) [Example 5, 1-[[3-[(2-Methylquinolin-8-yl)oxymethyl]-2,4-dichlorophenyl]sulfonyl]-N-[2-hydroxyethyl]-2-pyrrolidinecarboxamide] | 90.1%
Cc1ccc2cccc(OCc3c(Cl)ccc(S(=O)(=O)N4CCCC4C(=O)NCCCO)c3Cl)c2n1 (stereo not shown) [Example 6] | 90.9%
Cc1ccc2cccc(OCc3c(Cl)ccc(S(=O)(=O)N4CCCC4C(=O)NCCCCCO)c3Cl)c2n1 (stereo not shown) [Example 7, 1-[[3-[(2-Methylquinolin-8-yl)oxymethyl]-2,4-dichlorophenyl]sulfonyl]-N-[5-hydroxypentyl]-2-pyrrolidinecarboxamide] | 97.8%
Cc1ccc2cccc(OCc3c(Cl)ccc(S(=O)(=O)N4CCCC4C(=O)NCCN(C)C)c3Cl)c2n1 (stereo not shown) [Example 8, 1-[[3-[(2-Methylquinolin-8-yl)oxymethyl]-2,4-dichlorophenyl]sulfonyl]-N-[2-dimethylaminoethyl]-2-pyrrolidinecarboxamide Dihydrochioride] | 95.5%
Cc1ccc2cccc(OCc3c(Cl)ccc(S(=O)(=O)N4CCCC4C(=O)NCCCN)c3Cl)c2n1 (stereo not shown) [Example 9, 1-[[3-[(2-Methylquinolin-8-yl)oxymethyl]-2,4-dichlorophenyl]sulfonyl]-N-[3-aminopropyl]-2-pyrrolidinecarboxamide] | 97.6%
Cc1ccc2cccc(OCc3c(Cl)ccc(S(=O)(=O)N4CCCC4C(=O)NCc4ccccc4)c3Cl)c2n1 (stereo not shown) [Example 10, 1-[[3-[(2-Methylquinolin-8-yl)oxymethyl]-2,4-dichlorophenyl]sulfonyl]-N-[phenylmethyl]-2-pyrrolidinecarboxamide] | 96.4%
CCNC(=O)[C@@H]1CCCN1S(=O)(=O)c1ccc(Cl)c(COc2cccc3ccc(C)nc23)c1Cl [Example 12, 1-[[3-[(2-Methylquinolin-8-yl)oxymethyl]-2,4-dichlorophenyl]sulfonyl]-N-ethyl-2-(S)-pyrrolidinecarboxamide] | 98.5%
CC(=O)NC1CCN(S(=O)(=O)c2ccc(Cl)c(COc3cccc4ccc(C)nc34)c2Cl)C1 (stereo not shown) [Example 13, 3-[(1-Oxoethyl)amino]-1-[[3-[(2-methylquinolin-8-yl)oxymethyl]-2,4-dichlorophenyl]sulfonyl]pyrrolidine] | 98.6%
Cc1ccc2cccc(OCc3c(Cl)ccc(S(=O)(=O)N4CCC(O)C4)c3Cl)c2n1 (stereo not shown) [Example 14, 3-Hydroxy-1-[[3-[(2-methylquinolin-8-yl)oxymethyl]-2,4-dichlorophenyl]-sulfonyl]pyrrolidine] | 94%
Cc1ccc2cccc(OCc3c(Cl)ccc(S(=O)(=O)N4CCSC4)c3Cl)c2n1 [Example 15, 3-[[3-[(2-Methylquinolin-8-yl)oxymethyl]-2,4-dichlorophenyl]sulfonyl]-thiazolidine] | 94.9%
Cc1ccc2cccc(OCc3c(Cl)ccc(S(=O)(=O)N4CCCC4)c3Cl)c2n1 [Example 16, 1-[[3-[(2-Methylquinolin-8-yl)oxymethyl]-2,4-dichlorophenyl]sulfonyl]-pyrrolidine] | 90.1%
Cc1ccc2cccc(OCc3c(Cl)ccc(S(=O)(=O)n4cccc4)c3Cl)c2n1 [Example 17, 1-[[3-[(2-Methylquinolin-8-yl)oxymethyl]-2,4-dichlorophenyl]sulfonyl]pyrrole] | 93.8%
